According to PMC6100415, “Hepatic Metabolism of Sakuranetin and Its Modulating Effects on Cytochrome P450s and UDP-Glucuronosyltransferases” (Molecules : A Journal of Synthetic Chemistry and Natural …, 2018):

Test system: hCAR-mediated CYP2B6 promoter
Assay: CAR-mediated CYP2B6 promoter luciferase assay in HepG2 cells
Assay type: cell-based, human
Details: pcDNA3-CAR-transfected HepG2 cells, 24 h; CITCO 500 nM
Description: HepG2 cells (American Tissue Culture Collection, Manassas, VA, USA) were maintained in Dulbecco’s modified Eagle’s essential medium (DMEM), containing 10% fetal bovine serum, 1% nonessential amino acids, 1% GlutaMAX®, and 1% antibiotics/antimycotics at 37 °C in a 5% CO2 atmosphere. The expression plasmid encoding the human constitutive androstane receptor (hCAR; pcDNA3-CAR) and the pGL3-CYP2B6 luciferase construct were kindly provided by Dr. Hongbing Wang (University of Maryland, College Park, MD, USA). The plasmid encoding the human pregnane X receptor (hPXR; pcDNA3-PXR) and the pGL3-CYP3A4 luciferase construct were obtained from Dr. Masahiko Negishi at the National Institutes of Health (Bethesda, MD, USA). Cells were seeded at a density of 1.5 × 10^5 cells/well into a 24-well plate. The next day, the cells were transfected with 0.25 μg of either pcDNA3-CAR or pcDNA3-PXR and 0.25 μg of a promoter luciferase plasmid (either pGL3-CYP2B6 or pGL3-CYP3A4) using Lipofectamine 2000 (Invitrogen, Carlsbad, CA, USA) according to the manufacturer’s instructions. […] The cells were harvested and luciferase activity was measured as described previously.

Clc1ccc(-c2nc3sccn3c2C=NOCc2ccc(Cl)c(Cl)c2)cc1 [CITCO, reference compound]
CYP2B6 luciferase activity increase: 1.5 fold
